Literature values in patent US7560120B2, “Vehicles for delivery of biologically active substances” (University of Tennessee Research Foundation, priority 2002, dated 2009).
Counter-ions that a name gives are not always drawn. Like-named read-outs stand apart in the source and are kept apart here.

Key:
[1] = tested on: Rat; settings: oral
[2] = not given; remark: listed apart in the source
[3] = tested on: Rat; settings: in vivo, sc

SMILES	Viscosity (cps) at 25° C. [cps]	LD50 [1] [mg/kg]	Water Solubility at 25° C. (g/100 ml) [2] [g/100 ml]	LD50 [3] [mg/kg]
CCCCCCOC(=O)CC(CC(=O)OCCCCCC)(OC(C)=O)C(=O)OCCCCCC [A-6, Acetyltri-n-hexyl Citrate]	36	20000		
CCOC(=O)CC(CC(=O)OCC)(OC(C)=O)C(=O)OCC [ATEC, acetyl triethyl citrate]	54	7000		
CCCCOC(=O)CC(O)(CC(=O)OCCCC)C(=O)OCCCC [TBC, Tributyl Citrate]	32	>30000	<0.1	
CCCCOC(=O)CC(CC(=O)OCCCC)(OC(C)=O)C(=O)OCCCC [ATBC, Acetyl Tributyl Citrate]	33	>25000	<0.1	
CCCCCCOC(=O)CC(CC(=O)OCCCCCC)(OC(=O)CCC)C(=O)OCCCCCC [B-6, Butyryltri-n-hexyl Citrate]	28	2000		
CCOC(=O)CC(O)(CC(=O)OCC)C(=O)OCC [TEC, triethyl citrate]	35			6600
